Measurements taken from BindingDB's records for doi:10.1016/j.bmc.2008.07.062 (Astellas Pharma, 2008).

Key:
[1] = Antagonist activity at human CCR4 receptor assessed as inhibition of CCL22-induced chemotaxis by bioluminescent assay
[2] = Antagonist activity at mouse CCR4 receptor assessed as inhibition of CCL22-induced chemotaxis by bioluminescent assay

Row | IC50 [1] | IC50 [2] | SMILES
1 | 280 nM | – | COc1cc2nc(N3CCC(N(C)CCCO)CC3)nc(Nc3ccc(Cl)cc3)c2cc1OC [3-[(1-{4-[(4-Chlorophenyl)amino]-6,7-dimethoxyquinazolin-2-yl}piperidin-4-yl)(methyl)amino]propan-1-ol]
2 | 360 nM | – | COc1cc2nc(N3CCC(N(C)CCCCO)CC3)nc(Nc3ccc(Cl)cc3)c2cc1OC [4-[(1-{4-[(4-Chlorophenyl)amino]-6,7-dimethoxyquinazolin-2-yl}piperidin-4-yl)(methyl)amino]butan-1-ol]
3 | 69 nM | 820 nM | COc1cc2nc(N3CCC(N4CCCC4)CC3)nc(Nc3ccc(F)c(F)c3)c2cc1OC [N-(3,4-Difluorophenyl)-6,7-dimethoxy-2-(4-pyrrolidin-1-ylpiperidin-1-yl)quinazolin-4-amine]
4 | 320 nM | 710 nM | COc1cc2nc(N3CCC(N4CCCC4)CC3)nc(Nc3ccc(F)cc3)c2cc1OC [N-(4-Fluorophenyl)-6,7-dimethoxy-2-(4-pyrrolidin-1-ylpiperidin-1-yl)quinazolin-4-amine]
